Assay results from patent US20260356856A1, “KRAS G12S AND G12C INHIBITORS” (MIRATI THERAPEUTICS, INC., priority 2023, published 2026).

How the values were obtained:
[1] = target: T1, KRas-mediated phosphorylation of ERK in MKN1 cells (Homo sapiens, UniProt P01116); assay: Inhibition of KRas-mediated phosphorylation of ERK (HTRF), MKN1 cells; assay type: cell-based; conditions: MKN1 cells (KRas WT); HTRF pERK; 3 h incubation
T1 construct: pERK HTRF read-out
Method: Inhibition of KRas Phosphorylation of ERK (HTRF) by Exemplary Compounds of Formula (Ia) or (Ib)
Cisbio HTRF Advanced pERK Assay Catalog #64AERPEH • Cells: MKN1, PSN1 • Procedure: • 1. Day 1: Seed 6,000 cells/well −25 μl/well in 384-well white solid bottom plate; RPM1_10% FBS. Incubate overnight at 37 °C/5% CO2. • 2.

KRas G12C = target: T2, KRas G12C (Homo sapiens, UniProt P01116, G12C); assay: KRas binding assay, TR-FRET displacement of Cy5 labelled tracer; conditions: 60-minute incubation at room temperature, 1% DMSO, pH 7.5
T2 construct: Biotinylated KRas (corresponding to amino acids 1-169, produced at Accelegan Inc.); biotin (biotinylated); purchased Accelegan Inc
Method in brief: (§1)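 Displacement measured on KRas residues 1-169 (biotinylated, terbium-streptavidin labelled); 1 h, RT; 1% DMSO final; HEPES pH 7.5 / MgCl2 / Tween-20 / DTT. IC50: 4-parameter fit.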

KRas WT = target: T3, KRas WT (Homo sapiens, UniProt P01116); assay: as above; conditions: 60-minute incubation at room temperature, 1% DMSO, pH 7.5
T3 construct: Biotinylated KRas (corresponding to amino acids 1-169, produced at Accelegan Inc.); biotin (biotinylated); purchased Accelegan Inc
Method in brief: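 Tb-streptavidin captured biotinylated KRas (1-169) in HEPES 50 mM, DTT 1 mM, MgCl2 5 mM, Tween-20 0.005% (pH 7.5), alongside tracer and compound at 1% final DMSO. One hour at RT, then read; IC50 from 4-parameter POC fit.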

KRas G12S = target: T4, KRas G12S (Homo sapiens, UniProt P01116, G12S); assay: as above; conditions: 60-minute incubation at room temperature, 1% DMSO, pH 7.5
T4 construct: Biotinylated KRas (corresponding to amino acids 1-169, produced at Accelegan Inc.); biotin (biotinylated); purchased Accelegan Inc
Method in brief: as §1

[2] = target: T5, KRas-mediated phosphorylation of ERK in H358 cells (Homo sapiens, UniProt P01116, G12C); assay: Inhibition of KRas-mediated phosphorylation of ERK (HTRF), H358 cells; assay type: cell-based; conditions: HTRF pERK, 3 h incubation
T5 construct: pERK HTRF read-out

[3] = target: T6, KRas-mediated phosphorylation of ERK in A549 cells (Homo sapiens, UniProt P01116, G12S); assay: Inhibition of KRas-mediated phosphorylation of ERK (HTRF), A549 cells; assay type: cell-based; conditions: HTRF pERK, 3 h incubation
T6 construct: pERK HTRF read-out
T6 sequence (P01116 1-188 isoform P01116-2 G12S): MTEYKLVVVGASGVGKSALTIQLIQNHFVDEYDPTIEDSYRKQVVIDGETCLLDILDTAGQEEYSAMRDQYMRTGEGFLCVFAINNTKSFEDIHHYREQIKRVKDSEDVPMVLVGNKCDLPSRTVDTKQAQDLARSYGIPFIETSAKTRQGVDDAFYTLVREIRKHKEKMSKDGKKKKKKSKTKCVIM

T1 sequence (P01116 1-188 isoform P01116-2): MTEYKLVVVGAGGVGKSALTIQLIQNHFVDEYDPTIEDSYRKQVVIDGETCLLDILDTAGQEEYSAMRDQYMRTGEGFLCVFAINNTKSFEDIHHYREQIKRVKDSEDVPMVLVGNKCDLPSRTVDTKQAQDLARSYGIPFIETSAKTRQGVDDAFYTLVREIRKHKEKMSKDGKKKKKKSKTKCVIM
T4 sequence (P01116 1-169 isoform P01116-2 G12S): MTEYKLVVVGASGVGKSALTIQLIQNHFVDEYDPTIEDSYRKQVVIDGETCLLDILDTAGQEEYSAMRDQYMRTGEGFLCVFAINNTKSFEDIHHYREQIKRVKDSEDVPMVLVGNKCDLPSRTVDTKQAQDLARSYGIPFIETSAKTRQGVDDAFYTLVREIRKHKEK
T5 sequence (P01116 1-188 isoform P01116-2 G12C): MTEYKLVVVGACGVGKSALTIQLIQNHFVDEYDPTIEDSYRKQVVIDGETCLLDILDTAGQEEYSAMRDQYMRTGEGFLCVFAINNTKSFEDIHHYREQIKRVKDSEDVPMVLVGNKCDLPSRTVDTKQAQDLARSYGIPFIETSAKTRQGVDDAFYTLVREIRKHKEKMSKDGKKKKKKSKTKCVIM
T2 sequence (P01116 1-169 isoform P01116-2 G12C): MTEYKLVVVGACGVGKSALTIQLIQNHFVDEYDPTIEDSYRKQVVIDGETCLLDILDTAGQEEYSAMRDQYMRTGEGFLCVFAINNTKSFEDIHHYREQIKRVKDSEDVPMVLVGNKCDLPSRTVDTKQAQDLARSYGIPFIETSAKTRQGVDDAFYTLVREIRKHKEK
T3 sequence (P01116 1-169 isoform P01116-2): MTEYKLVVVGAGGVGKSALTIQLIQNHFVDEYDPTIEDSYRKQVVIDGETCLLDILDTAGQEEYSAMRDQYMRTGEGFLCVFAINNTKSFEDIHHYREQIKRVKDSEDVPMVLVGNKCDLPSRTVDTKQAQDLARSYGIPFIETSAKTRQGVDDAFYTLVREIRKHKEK

For CN(CCCC(=O)Oc1ccccc1)c1nc(OC[C@@]23CCCN2C[C@H](F)C3)nc2c(F)c(-c3ccc(F)c4sc(N)c(C#N)c34)c(Cl)cc12 [Example 204, phenyl 4-((7-(2-amino-3-cyano-7-fluorobenzo[b]thiophen-4-yl)-6-chloro-8-fluoro-2-(((2R,7aS)-2-fluorotetrahydro-1H-pyrrolizin-7a(5H)-yl)methoxy)quinazolin-4-yl)(methyl)amino)butanoate], the IC50 [1] was 230 nM, the IC50 (KRas G12C) was < 2 nM and the IC50 (KRas WT) was 38 nM. The IC50 (KRas G12S) was 13 nM, the IC50 [2] was 17 nM and the IC50 [3] was 351 nM.
For CCc1c(F)ccc2cc(O)cc(-c3ncc4c(N(C)CCCC(=O)N(C)C(C)=O)nc(OC[C@@]56CCCN5C[C@H](F)C6)nc4c3F)c12 [Example 221, N-acetyl-4-((7-(8-ethyl-7-fluoro-3-hydroxynaphthalen-1-yl)-8-fluoro-2-(((2R,7aS)-2-fluorotetrahydro-1H-pyrrolizin-7a(5H)-yl)methoxy)pyrido[4,3-d]pyrimidin-4-yl)(methyl)amino)-N-methylbutanamide], the IC50 [1] was 409 nM, the IC50 (KRas G12C) was 43 nM and the IC50 (KRas WT) was 101 nM. It also gave an IC50 (KRas G12S) of 11 nM, an IC50 [2] of 485 nM and an IC50 [3] of 26 nM.
Cc1ccn(C(=O)CCCCNc2nc(OC[C@@]34CCCN3C[C@H](F)C4)nc3c(F)c(-c4ccc(F)c5sc(N)c(C#N)c45)c(Cl)cc23)n1 [Example 262, 2-amino-4-(6-chloro-8-fluoro-2-(((2R,7aS)-2-fluorotetrahydro-1H-pyrrolizin-7a(5H)-yl)methoxy)-4-((5-(3-methyl-1H-pyrazol-1-yl)-5-oxopentyl)amino)quinazolin-7-yl)-7-fluorobenzo[b]thiophene-3-carbonitrile] showed an IC50 [1] of 593 nM, an IC50 (KRas G12C) of 15 nM and an IC50 (KRas WT) of 25 nM. It also gave an IC50 (KRas G12S) of 25 nM, an IC50 [2] of 1170 nM and an IC50 [3] of 381 nM.
CCc1c(F)ccc2cc(O)cc(-c3ncc4c(N5C[C@@H](C)N(C(=O)n6ccc(C)n6)[C@@H](C)C5)nc(OC[C@@]56CCCN5C[C@H](F)C6)nc4c3F)c12 [Example 81, ((2S,6R)-4-(7-(8-ethyl-7-fluoro-3-hydroxynaphthalen-1-yl)-8-fluoro-2-(((2R,7aS)-2-fluorotetrahydro-1H-pyrrolizin-7a(5H)-yl)methoxy)pyrido[4,3-d]pyrimidin-4-yl)-2,6-dimethylpiperazin-1-yl)(3-methyl-1H-pyrazol-1-yl)methanone] gave an IC50 [1] of 192 nM, an IC50 (KRas G12C) of 165 nM and an IC50 (KRas WT) of 32 nM. The IC50 (KRas G12S) was 93 nM, the IC50 [2] was 2160 nM and the IC50 [3] was 3770 nM.
Cc1ccn(C(=O)CCCN(C)c2cc(O[C@@H](C)[C@@H]3CCCN3C)nc(-c3noc([C@@]4(C)CCCc5sc(N)c(C#N)c54)n3)n2)n1 [Example 322, (S)-2-amino-4-methyl-4-(3-(4-(methyl (4-(3-methyl-1H-pyrazol-1-yl)-4-oxobutyl)amino)-6-((S)-1-((S)-1-methylpyrrolidin-2-yl)ethoxy)pyrimidin-2-yl)-1,2,4-oxadiazol-5-yl)-4,5,6,7-tetrahydrobenzo[b]thiophene-3-carbonitrile] was tested, and the IC50 [1] was 7310 nM, the IC50 (KRas G12C) was 10 nM and the IC50 (KRas WT) was 525 nM. For the same molecule, the IC50 (KRas G12S) was 20 nM, the IC50 [2] was 9590 nM and the IC50 [3] was 96 nM.
Molecule COCCN(C(C)=O)C(=O)C1CCN(c2nc(OC[C@@]34CCCN3C[C@H](F)C4)nc3c(F)c(-c4ccc(F)c5sc(N)c(C#N)c45)c(Cl)cc23)CC1 [Example 305, N-acetyl-1-(7-(2-amino-3-cyano-7-fluorobenzo[b]thiophen-4-yl)-6-chloro-8-fluoro-2-(((2R,7aS)-2-fluorotetrahydro-1H-pyrrolizin-7a(5H)-yl)methoxy)quinazolin-4-yl)-N-(2-methoxyethyl)piperidine-4-carboxamide] has an IC50 [1] of 78 nM, an IC50 (KRas G12C) of 12 nM and an IC50 (KRas WT) of 21 nM. The IC50 (KRas G12S) was 17 nM, the IC50 [2] was 19 nM and the IC50 [3] was 21 nM.
For CCc1c(F)ccc2cc(O)cc(-c3ncc4c(N5CC[C@H]6[C@@H](C5)[C@H]6C(=O)n5ccc(C)n5)nc(OC[C@@]56CCCN5C[C@H](F)C6)nc4c3F)c12 [Example 156, ((1R,6S,7S)-3-(7-(8-ethyl-7-fluoro-3-hydroxynaphthalen-1-yl)-8-fluoro-2-(((2R,7aS)-2-fluorotetrahydro-1H-pyrrolizin-7a(5H)-yl)methoxy)pyrido[4,3-d]pyrimidin-4-yl)-3-azabicyclo[4.1.0]heptan-7-yl)(3-methyl-1H-pyrazol-1-yl)methanone], the IC50 [1] was 2090 nM, the IC50 (KRas G12C) was 89 nM and the IC50 (KRas G12S) was 15 nM. The IC50 [2] was 2350 nM and the IC50 [3] was 38 nM.
CCc1c(F)ccc2cc(O)cc(-c3ncc4c(N5CCC(C(=O)N(C)c6ccccn6)CC5)nc(OC[C@@]56CCCN5C[C@H](F)C6)nc4c3F)c12 [Example 62, 1-(7-(8-ethyl-7-fluoro-3-hydroxynaphthalen-1-yl)-8-fluoro-2-(((2R,7aS)-2-fluorotetrahydro-1H-pyrrolizin-7a(5H)-yl)methoxy)pyrido[4,3-d]pyrimidin-4-yl)-N-methyl-N-(pyridin-2-yl)piperidine-4-carboxamide] showed an IC50 (KRas G12C) of 619 nM, an IC50 (KRas WT) of 64 nM and an IC50 (KRas G12S) of 6330 nM. The IC50 [2] was 8390 nM and the IC50 [3] was 7060 nM.
For Cc1ccn(C(=O)[C@@H]2CCCN(c3nc(OC[C@@]45CCCN4C[C@H](F)C5)nc4c(F)c(-c5ccc(F)c6sc(N)c(C#N)c56)c(Cl)cc34)CC2)n1 (atropisomer, axis not shown; (aS)) [Example 172, 2-amino-4-((S)-6-chloro-8-fluoro-2-(((2R,7aS)-2-fluorotetrahydro-1H-pyrrolizin-7a(5H)-yl)methoxy)-4-((R)-4-(3-methyl-1H-pyrazole-1-carbonyl)azepan-1-yl)quinazolin-7-yl)-7-fluorobenzo[b]thiophene-3-carbonitrile], the IC50 [1] was 199 nM, the IC50 [2] was 50 nM and the IC50 [3] was 35 nM.
CCc1c(F)ccc2cc(O)cc(N3CCc4c(nc(OC[C@@]56CCCN5C[C@H](F)C6)nc4N4CCCC(C(=O)n5cccn5)CC4)C3)c12 (stereo partly drawn) [Example 143, (1-(7-(8-ethyl-7-fluoro-3-hydroxynaphthalen-1-yl)-2-(((2R,7aS)-2-fluorotetrahydro-1H-pyrrolizin-7a(5H)-yl)methoxy)-5,6,7,8-tetrahydropyrido[3,4-d]pyrimidin-4-yl)azepan-4-yl)(1H-pyrazol-1-yl)methanone] gave an IC50 (KRas G12C) of 56 nM, an IC50 (KRas WT) of 166 nM and an IC50 (KRas G12S) of 8 nM. For the same molecule, the IC50 [2] was 931 nM and the IC50 [3] was 38 nM.
CCc1c(F)ccc2cc(O)cc(-c3ncc4c(N5CCC(C(=O)Nc6ccccn6)CC5)nc(OC[C@@]56CCCN5C[C@H](F)C6)nc4c3F)c12 [Example 153, 1-(7-(8-ethyl-7-fluoro-3-hydroxynaphthalen-1-yl)-8-fluoro-2-(((2R,7aS)-2-fluorotetrahydro-1H-pyrrolizin-7a(5H)-yl)methoxy)pyrido[4,3-d]pyrimidin-4-yl)-N-(pyridin-2-yl)piperidine-4-carboxamide] was tested, and the IC50 (KRas G12C) was 439 nM, the IC50 (KRas WT) was 138 nM and the IC50 (KRas G12S) was 642 nM. The IC50 [2] was 1760 nM and the IC50 [3] was 4130 nM.
CCc1c(F)ccc2cc(O)cc(-c3ncc4c(N5CCC(C(=O)Oc6ccc(F)c(F)c6)CC5)nc(OC[C@@]56CCCN5C[C@H](F)C6)nc4c3F)c12 [Example 40, 3,4-difluorophenyl 1-(7-(8-ethyl-7-fluoro-3-hydroxynaphthalen-1-yl)-8-fluoro-2-(((2R,7aS)-2-fluorotetrahydro-1H-pyrrolizin-7a(5H)-yl)methoxy)pyrido[4,3-d]pyrimidin-4-yl)piperidine-4-carboxylate] gave an IC50 (KRas G12C) of 9 nM, an IC50 (KRas WT) of 729 nM and an IC50 (KRas G12S) of 1250 nM. The IC50 [2] was 913 nM and the IC50 [3] was > 10000 nM.
For CCc1c(F)ccc2cc(O)cc(-c3ncc4c(N5CCC(C(=O)n6ccc(C)n6)C5)nc(OC[C@@]56CCCN5C[C@H](F)C6)nc4c3F)c12 (stereo partly drawn) [Example 56, (1-(7-(8-ethyl-7-fluoro-3-hydroxynaphthalen-1-yl)-8-fluoro-2-(((2R,7aS)-2-fluorotetrahydro-1H-pyrrolizin-7a(5H)-yl)methoxy)pyrido[4,3-d]pyrimidin-4-yl)pyrrolidin-3-yl)(3-methyl-1H -pyrazol-1-yl)methanone], the IC50 (KRas G12C) was 13 nM, the IC50 (KRas WT) was 69 nM and the IC50 (KRas G12S) was 17 nM. It also gave an IC50 [2] of 2800 nM and an IC50 [3] of 66 nM.
CCc1c(F)ccc2cc(O)cc(-c3ncc4c(N5CCC(C=O)CC5)nc(OC[C@@]56CCCN5C[C@H](F)C6)nc4c3F)c12 [Example 15, 1-(7-(8-ethyl-7-fluoro-3-hydroxynaphthalen-1-yl)-8-fluoro-2-(((2R,7aS)-2-fluorotetrahydro-1H-pyrrolizin-7a(5H)-yl)methoxy)pyrido[4,3-d]pyrimidin-4-yl)piperidine-4-carbaldehyde] was tested, and the IC50 (KRas G12C) was < 2 nM, the IC50 (KRas WT) was 11 nM and the IC50 (KRas G12S) was 9 nM. It also gave an IC50 [2] of 22 nM and an IC50 [3] of 149 nM.
